US6399654B1, “Biflavanoids and derivatives thereof as antiviral agents” (priority 1995, dated 2002)
In brackets after ≈: the same amount, converted by molar mass. Like-named read-outs stand apart in the source and are kept apart here. Marks after values point to notes of the source that are not given here.

Legend:
[1] = test system: HCMV; test: HCMV CPE inhibition in HFF cells
[2] = test system: Influenza A (H1N1) Texas/36/91; test: microbe, parasite or virus in culture; assay type: cell-based, influenza A virus; conditions: Influenza A virus, read-out: Neutral Red EC50
[3] = test system: Respiratory Syncytial Virus; test: microbe, parasite or virus in culture; assay type: cell-based
[4] = test system: Influenza A (H1N1) Texas/36/91; test: microbe, parasite or virus in culture; assay type: cell-based, influenza A virus; conditions: Influenza A virus, read-out: CPE Inhibition EC50
[5] = molecular target: T1, HIV-1 RT (Human immunodeficiency virus type 1 group M subtype B, UniProt P03366); test: Anti-HIV-1 RT assay (recombinant enzyme); assay type: biochemical
T1 construct: made in house; host or cells: Escherichia coli

[6] = in vitro; conditions: human
[7] = test system: Parainfluenza Type 3 Virus; test: organism not typed; assay type: cell-based
[8] = test system: Madin Darby canine kidney (MDCK) cells
[9] = test system: VZV; test: VZV plaque reduction assay in HFF cells
[10] = in vitro; conditions: human; remark: listed apart in the source
[11] = in vitro; conditions: African green monkey, Neutral Red IC50 (cytotoxic)
[12] = in vitro; conditions: dog, Neutral Red IC50 (cytotoxic)
[13] = test system: Adenovirus Type 5; test: microbe, parasite or virus in culture; assay type: cell-based; conditions: Human mastadenovirus C, A549, read-out: CPE Inhibition EC50
[14] = Cytotoxicity by neutral red dye uptake, A549 cells; conditions: human, A549 cells (toxicity control wells)
[15] = test system: Influenza A (H3N2) Beijing/32/92; test: microbe, parasite or virus in culture; assay type: cell-based, influenza A virus; conditions: Influenza A virus, read-out: CPE Inhibition EC50
[16] = test system: Adenovirus Type 5; test: Adenovirus type 5 neutral red dye uptake in A549 cells; assay type: cell-based; conditions: Human mastadenovirus C, A549; Adenovirus Type 5; read-out: Neutral Red EC50
[17] = in vitro; conditions: dog
[18] = test system: Influenza B Panama/45/90; test: microbe, parasite or virus in culture; assay type: cell-based; conditions: Influenza B virus, MDCK; Influenza B Panama/45/90; read-out: CPE Inhibition EC50
[19] = test system: Measles Virus; test: microbe, parasite or virus in culture; assay type: cell-based; conditions: Measles morbillivirus
[20] = test system: Respiratory Syncytial Virus; test: microbe, parasite or virus in culture; assay type: cell-based; conditions: human respiratory syncytial virus, MA104; read-out: Neutral Red EC50
[21] = test system: Parainfluenza Type 3 Virus; test: organism not typed; assay type: cell-based; conditions: MA104, read-out: Neutral Red EC50
[22] = Cytotoxicity by neutral red dye uptake, MA-104 cells; conditions: African green monkey, MA-104 cells (toxicity control wells), Neutral Red IC50 (cytotoxic), Respiratory Syncytial Virus test
[23] = test system: Measles Virus; test: Measles virus neutral red dye uptake in BSC-1 cells; assay type: cell-based; conditions: Measles morbillivirus, BSC-1
[24] = in vitro; conditions: human; remark: listed apart in the source
[25] = test system: HSV-1; test: HSV-1 CPE inhibition in HFF cells
[26] = test system: Hepatitis B Virus (HBV); test: Inhibition of HBV replication in 2.2.15 cells, extracellular (virion) HBV DNA; conditions: Hepatitis B virus, 216 h;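 further: extracellular virion HBV DNA in culture medium measured by slot blot hybridization with a 32P-labeled HBV probe, quantified against HBV DNA standards, after 9 days of daily dosing, compared with day 0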
[27] = test system: HIV-1 (strain LAV-1); test: microbe, parasite or virus in culture; assay type: cell-based; conditions: Human immunodeficiency virus 1, PBMC, human PBM cells infected with HIV-1 (strain LAV); read-out: Ant-HIV-1 in PBM cells EC50
[28] = test system: Influenza A (H3N2) Beijing/32/92; test: microbe, parasite or virus in culture; assay type: cell-based, influenza A virus; conditions: Influenza A virus, read-out: Neutral Red EC50
[29] = test system: HSV-2; test: HSV-2 CPE inhibition in HFF cells
[30] = test system: Influenza A (A/NWS/33 (H1N1)); test: Influenza A virus infection in mice; assay type: in vivo, BALB/c mice
Procedure: Animals: Female 13-15 g specific pathogen-free BALB/c mice were obtained form Simonsen Laboratories (Gilroy, Calif.). They were quarantined 24 h prior to use, and maintained on Wayne Lab Blox and tap water. After being infected, their drinking water contained 0.006% oxytetracycline (Pfizer, New York, N.Y.) to control possible secondary bacterial infections.
Virus: A/NWS/33 (H1N1) was obtained from K. W. Cochran, Univ. of Michigan (Ann Arbor, Mich.). A virus pool was prepared in MDCK cells; this was titrated in mice, ampuled, and stored at −80° C. until used.
Compounds: Robustaflavone was stored at room temperature until used. Ribavirin, used as a positive control, was obtained from ICN Pharmaceuticals (Costa Mesa, Calif.). Vehicles considered included DMSO (Sigma Chemical Co., St. Louis, Mo.), DMF (Sigma), PEG M. W. 200 (Aldrich Chemical Co. Milwaukee, Wis.), 0.4% CMC (Sigma) and 1-methyl-2-pyrrolidinone (MPD, Aldrich).
Arterial Oxygen Saturation (SaO2) Determinations: SaO2 was determined using the Ohmeda Blox 3740 pulse oximeter (Ohmeda, Louisville, Ohio)). The ear probe attachment was used, the probe placed on the thigh of the animal, with the slow instrument mode selected. Readings were made after a 30 second stabilization time on each animal. Use of this device for measuring effects of influenza virus on arterial oxygen saturation have been described.^72
Lung Virus Determinations: Each mouse lung was homogenized and varying dilutions assayed in triplicate for infectious virus in MDCK cells as described previously.^73
4. Effect of robustaflavone in CMC or in DMSO on influenza virus infection in mice. In the study with CMC, robustaflavone was used in dosages of 200 and 100 mg/kg/day; using DMSO vehicle, the dosages were 75 and 37.5 mg/kg/day, with the compound administered i.p. twice daily for 5 days beginning 4 h pre-virus exposure. The mice were used in each dose to monitor effects on SaO2 and death; from an additional group of similarly infected and treated mice, 3 animals were killed on days 3, 5, 7 and 9 to assay for lung score (0=normal, 4=maximal consolidation), weight, and virus titer. Three to four mice were used as toxicity controls, which were weighed prior to treatment and again 18 h after treatment termination, and deaths noted daily. […] Three sets of virus controls were used: Infected-untreated, infected-treated with CMC only, and infected-treated with DMSO only. Twenty animals were used in each of these control groups to monitor SaO2 and death, with 3 additional mice taken in parallel with treated animals to determine effects on lung consolidation and virus titer. Two sets of normal controls were used; one group of three mice was weighed and held in parallel with the toxicity controls. From the second group three mice were killed on days 3 and 9 for comparison of lung score and weight.
Statistical Evaluation: Increase in survivor number was evaluated using chi square analysis with Yates' correction. Mean survival time increases, virus titer and SaO2 value differences were analyzed by t-test. Lung consolidation scores were evaluated by ranked sum analysis.

[31] = test system: Influenza B Panama/45/90; test: microbe, parasite or virus in culture; assay type: cell-based; conditions: Influenza B virus, MDCK, read-out: Neutral Red EC50
[32] = in vitro; conditions: African green monkey
[33] = in vitro; conditions: African green monkey; remark: listed apart in the source
[34] = in vitro; conditions: African green monkey; remark: listed apart in the source
[35] = MDCK, Influenza A (H1N1) Texas/36/91
[36] = MDCK, Influenza A (H3N2) Beijing/32/92
[37] = ribavirin in saline, 75 mg/kg/day i.p. bid × 5
[38] = CPE Inhibition IC50 (cytotoxic)

With `O=c1cc(-c2ccc(O)c(-c3c(O)cc(O)c4c(=O)cc(-c5ccc(O)cc5)oc34)c2)oc2cc(O)cc(O)c12` [Amentoflavone (1), amentoflavone] the “HCMV SI (CC50/EC50)” value ([1]; HFF Cells) was >1.9, the EC50 ([1]; Human betaherpesvirus 5, HFF, read-out: HCMV CPE Inhibition EC50) was 50.8 µg/mL (≈ 94.3 µM) and the EC50 [2, 35] was 5.3 µg/mL (≈ 9.84 µM). It also gave an EC50 ([3]; human respiratory syncytial virus, MA104; read-out: CPE Inhibition EC50) of ~10 µg/mL (≈ 18.6 µM), an EC50 [4, 35] of 3.1 µg/mL (≈ 5.76 µM) and an IC50 ([5]; Anti-HIV-1 RT IC50, values in parentheses or in words) of 119 µM. It also gave an IC50 ([5]; HIV-1 RT IC50 (50% inhibition dose)) of 119 µM, an inhibition at 200 µg/mL ([5]; read-out: Anti-HIV-1 RT % Inhibition at 200 μg/ml) of 97.3% and an IC50 [6] of 18 µg/mL (≈ 33.4 µM). For the same compound, the EC50 ([7]; MA104, Parainfluenza Type 3 Virus, read-out: CPI Inhibition EC50) was > 100 µg/mL, the “CPE Inhibition IC50 (cytotoxic)” value ([8]; Influenza A (H3N2) test) was >100 µg/mL and the “VZV SI (CC50/EC50)” value ([9]; HFF Cells) was <2.3. The EC50 ([9]; Human alphaherpesvirus 3, HFF, read-out: VZV Plaque Reduction EC50) was > 4 µg/mL, the IC50 [10] was 35 µM and the IC50 [11] was ~56 µg/mL (≈ 104 µM). The IC50 ([12]; Influenza A (H1N1) test) was > 100 µg/mL, the IC50 ([12]; Influenza A (H3N2) test) was > 100 µg/mL and the EC50 [13] was > 100 µg/mL. The IC50 [14] was 74 µg/mL (≈ 137 µM), the EC50 [15, 36] was 4.3 µg/mL (≈ 7.99 µM) and the EC50 [16] was > 100 µg/mL. The IC50 ([17]; CPE Inhibition IC50 (50% cell inhibitory (cytotoxic) concentration), Influenza A (H1N1) test) was 22 µg/mL (≈ 40.9 µM), the IC50 ([17]; CPE Inhibition IC50 (cytotoxic), Influenza A (H3N2) test) was > 100 µg/mL and the IC50 ([17]; CPE Inhibition IC50 (cytotoxic), Influenza B test) was 100 µg/mL (≈ 186 µM). The EC50 [18] was 0.56 µg/mL (≈ 1.04 µM), the EC50 ([19]; BSC-1, Measles Virus, read-out: CPI Inhibition EC50) was < 40 µg/mL and the EC50 [20] was ~21 µg/mL (≈ 39 µM). For the same compound, the EC50 [21] was ~32 µg/mL (≈ 59.4 µM), the IC50 [22] was ~35 µg/mL (≈ 65 µM) and the EC50 [23] was < 20 µg/mL. For the same compound, the CC50 at 14 days ([24]; HCMV CPE Inhibition CC50) was > 100 µg/mL, the CC50 at 3 days ([24]; HSV-1 CPE Inhibition CC50) was > 100 µg/mL and the CC50 at 3 days ([24]; HSV-2 CPE Inhibition CC50) was > 100 µg/mL. The CC50 at 10 days ([24]; VZV Plaque Reduction CC50) was 9.3 µg/mL (≈ 17.3 µM), the “HSV-1 SI (CC50/EC50)” value ([25]; HFF Cells) was >5.6 and the EC50 ([25]; Human alphaherpesvirus 1, HFF, read-out: HSV-1 CPE Inhibition EC50) was 17.9 µg/mL (≈ 33.2 µM). The EC50 ([26]; read-out: EC50 (50% effective dose), HBV Virion, 2.2.15 cells, extracellular (virion) HBV DNA, 9 days treatment) was > 100 µM, the EC90 ([26]; read-out: EC90 (90% effective dose), HBV Virion, 2.2.15 cells, extracellular (virion) HBV DNA, 9 days treatment) was > 100 µM and the EC50 [27] was > 10.9 µM. For the same compound, the EC50 [28, 36] was 6.5 µg/mL (≈ 12.1 µM), the “HSV-2 SI (CC50/EC50)” value ([29]; HFF Cells) was >2.1 and the EC50 ([29]; Human alphaherpesvirus 2, HFF, read-out: HSV-2 CPE Inhibition EC50) was 48 µg/mL (≈ 89.1 µM).
With `NC(=O)c1ncn([C@@H]2O[C@H](CO)[C@@H](O)[C@H]2O)n1` [Ribavirin, ribavirin, reference compound] the EC50 ([2]; H1N1, MDCK) was 1.4 µg/mL (≈ 5.73 µM), the “inhibition of the infection, in words” value ([30]; ribavirin 75 mg/kg/day, positive control) was “highly active” and the “Infected, Treated MST” value [30, 37] was >21.0** days. The “Infected, Treated Mean SaO2” value [30, 37] was 87.1** %, the “Infected, Treated Surv/Total” value [30, 37] was 10/10** and the EC50 ([3]; human respiratory syncytial virus, MA104, read-out: CPE Inhibition EC50) was 12 µg/mL (≈ 49.1 µM). The EC50 [31] was 0.48 µg/mL (≈ 1.97 µM), the EC50 ([4]; H1N1, MDCK) was 1.9 µg/mL (≈ 7.78 µM) and the EC50 ([7]; MA104, read-out: CPI Inhibition EC50) was 25 µg/mL (≈ 102 µM). For the same compound, the “CPE Inhibition IC50 (cytotoxic)” value ([8]; dog) was >1000 µg/mL, the EC50 ([15]; H3N2, MDCK) was 4.1 µg/mL (≈ 16.8 µM) and the IC50 ([17]; CPE Inhibition IC50 (50% cell inhibitory (cytotoxic) concentration)) was 562 µg/mL (≈ 2300 µM). It also gave an IC50 [17, 38] of 562 µg/mL (≈ 2300 µM), an EC50 [18] of 1.5 µg/mL (≈ 6.14 µM) and an IC50 [32, 38] of 120 µg/mL (≈ 491 µM). It also gave an IC50 ([32]; CPI Inhibition IC50 (cytotoxic)) of 245 µg/mL (≈ 1000 µM), an EC50 ([19]; BSC-1, read-out: CPI Inhibition EC50) of 3 µg/mL (≈ 12.3 µM) and an EC50 [20] of 6 µg/mL (≈ 24.6 µM). The EC50 [21] was 17 µg/mL (≈ 69.6 µM), the EC50 [23] was 1 µg/mL (≈ 4.09 µM) and the IC50 [33] was 150 µg/mL (≈ 614 µM). It also gave an IC50 [34] of 150 µg/mL (≈ 614 µM) and an EC50 ([28]; H3N2, MDCK) of 5.7 µg/mL (≈ 23.3 µM).
